IC50 data for 29 compounds are collected here from patent publication US20080234384A1, “BIARYL AND BIHETEROARYL COMPOUNDS USEFUL IN TREATING IRON DISORDERS” (XENON PHARMACEUTICALS INC., priority 2007, published 2008).

Counter-ions that a name gives are not always drawn.

In this assay the target is T1, DMT1 (Homo sapiens, UniProt P49281).
T1 sequence (P49281 1-568): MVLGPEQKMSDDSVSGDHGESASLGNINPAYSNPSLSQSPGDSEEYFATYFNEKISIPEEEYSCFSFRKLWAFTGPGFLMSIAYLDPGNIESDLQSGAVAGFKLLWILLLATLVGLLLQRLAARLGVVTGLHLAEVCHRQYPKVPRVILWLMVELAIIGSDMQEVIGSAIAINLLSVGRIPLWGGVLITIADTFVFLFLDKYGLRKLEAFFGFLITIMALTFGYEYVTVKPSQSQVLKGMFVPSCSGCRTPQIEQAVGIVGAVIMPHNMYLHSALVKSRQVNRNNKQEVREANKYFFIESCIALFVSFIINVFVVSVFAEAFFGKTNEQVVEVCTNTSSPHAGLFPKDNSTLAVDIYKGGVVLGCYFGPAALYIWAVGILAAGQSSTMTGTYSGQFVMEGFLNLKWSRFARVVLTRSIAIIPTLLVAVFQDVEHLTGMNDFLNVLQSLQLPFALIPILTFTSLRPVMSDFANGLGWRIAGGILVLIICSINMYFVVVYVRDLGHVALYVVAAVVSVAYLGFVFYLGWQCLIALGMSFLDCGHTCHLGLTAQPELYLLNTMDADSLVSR
Briefly: DMT1 Activity Assay (In Vitro Assay). It counts as cell-based. Conditions: read-out: IC50 Activity Level. The source says: In particular, identification of the compounds of the invention ability to modulate, preferably to inhibit, DMT1 activity, can be assessed using a variety of in vitro and in vivo assays, for measuring uptake of reduced iron (Fe^2+). One such protocol involves the screening of chemical agents for ability to modulate the activity of DMT1 thereby identifying it as a modulating agent. The in vitro activity of DMT1 can be measured in cell based assays by either directly measuring iron flux (using a radioactively labelled iron ^55Fe) or by measuring the fluorescence of a cell permeable iron fluorophore such as calcein. Stable cell lines overexpressing DMT1 are exposed to ^55Fe or loaded with calcein and then compound is applied. […] Alternatively, in another format electrophysiological techniques can be used to measure the current or iron or other metals traversing the cell membrane with DMT1 in a Xenopus oocyte or other cell based system (Gunshin et al., Nature, 1997, 31; 388(6641):482-8).
This example discloses various in vitro assay for testing and profiling test agents against DMT1 stably expressed in cells of either an endogenous or recombinant origin. These assays can use stable cell lines overexpressing DMT1 or intestinal cells and intestinal tissue expressing endogenous DMT1. DMT1 function could also be assessed in other cell types that express DMT1. Of greatest relevance would be the erythrocytes (e.g. K562 cells) or hepatocytes (e.g. […]).
DMT1 function can be assessed in a number of ways, including monitoring fluorescence changes of an iron fluorophore (e.g. calcein), monitoring uptake of radiolabelled iron (55Fe or ^59Fe) (Picard et al., J. Biol. Chem., 2000, 275(46):35738-45 and Wetli et al., Chem. Biol. 2006 September; 13(9):965-72), or by assessing the current or transport of iron and other metals into the cells or tissues using standard electrophysiological techniques (Gunshin et al., Nature, 1997, 388(6641):482-8.).
Variations of these assays involve alterations of incubation times, the iron status of the cells and tissues (which may be modulated by chemical chelators or by harvesting from iron deficient animals), the metal cation detected and the pH of the reaction can generally be made by conventional techniques known to those skilled in the art.

Broadly, the IC50 is the midpoint of a concentration-inhibition curve.

For the compound `N=C(N)SCc1ccccc1Sc1ccc(Cl)cc1CSC(=N)N` [Example 1.26, 2-[2-(2-carbamimidoylsulfanylmethylphenylsulfanyl)-5-chlorobenzyl]-isothiourea dihydrobromide], the IC50 was 100 to 1000 nM.

Turning to `N=C(N)SCc1cc(F)ccc1Sc1cc(F)ccc1CSC(=N)N` [Example 1.15, 2-[2-(2-carbamimidoylsulfanylmethyl-5-fluorophenylsulfanyl)-5-fluorobenzyl]isothiourea dihydrobromide], the IC50 lay in the range of 100 to 1000 nM.

Turning to `N=C(N)SCc1cc(F)ccc1Sc1cc(F)c(F)cc1CSC(=N)N` [Example 1.16, 2-[2-(2-carbamimidoylsulfanylmethyl-4,5-difluorophenylsulfanyl)-5-fluorobenzyl]isothiourea dihydrobromide], the IC50 fell in the range of 100 to 1000 nM.

For `N=C(N)SCc1cc(F)ccc1Oc1cc(Cl)ccc1CSC(=N)N` [Example 2.30, 2-[2-({[amino(imino)methyl]thio}methyl)-5-chlorophenoxy]-5-fluorobenzyl imidothiocarbamate dihydrobromide], the IC50 fell in the range of 100 to 1000 nM.

`CN(c1ccccc1CSC(=N)N)c1ccccc1CSC(=N)N` [Example 1.28, 2,2′-(methylazanediyl)bis(2,1-phenylene)bis-(methylene)dicarbamimidothioate trihydrobromide]: the IC50 fell in the range of 100 to 1000 nM.

Regarding `N=C(N)SCc1cccc(CSC(=N)N)c1-c1c(CSC(=N)N)cccc1CSC(=N)N` [Example 2.23, biphenyl-2,2′-6,6′-tetrayltetrakis(methylene)tetracarbamimidothioate tetrahydrobromide], the 50% inhibitory concentration (IC50) is at least 1000 nM.

On to `Cc1ccc(CSC(=N)N)c(Sc2ccccc2CSC(=N)N)c1` [Example 1.3, 2-[2-(2-carbamimidoylsulfanylmethyl-5-methylphenylsulfanyl)-benzyl]isothiourea dihydrobromide], for which the IC50 was at least 1000 nM.

In the case of `N=C(N)SCc1ccccc1Oc1ccccc1CSC(=N)N` [Example 2.15, 2-[2-(2-carbamimidoylsulfanylmethylphenoxy)benzyl]isothiourea dihydrobromide], the IC50 is at least 1000 nM.

As for `Cc1cccc(CSC(=N)N)c1Sc1ccccc1CSC(=N)N` [Example 1.8, 2-[2-(2-carbamimidoylsulfanylmethyl-6-methylphenylsulfanyl)-benzyl]isothiourea dihydrobromide], the IC50 is at least 1000 nM.

As for `CN(C)S(=O)(=O)c1ccc(Sc2ccc(F)cc2CSC(=N)N)c(CSC(=N)N)c1` [Example 2.2, 2-({2-({[amino(imino)methyl]thio}methyl)-4-[(dimethylamino)sulfonyl]phenyl}thio)-5-fluorobenzyl imidothiocarbamate dihydrobromide], the IC50 lay within 100 to 1000 nM.

With `N=C(N)SCc1cc(F)ccc1Sc1c(CSC(=N)N)cccc1[N+](=O)[O-]` [Example 1.17, 2-[2-(2-carbamimidoylsulfanylmethyl-4-fluorophenylsulfanyl)-3-nitrobenzyl]isothiourea dihydrobromide], the IC50 was at least 1000 nM.

For `N=C(N)SCc1ccccc1Sc1cc(F)c(F)cc1CSC(=N)N` [Example 1.9, 2-[2-(2-carbamimidoylsulfanylmethyl-4,5-difluorophenylsulfanyl)-benzyl]isothiourea dihydrobromide], the IC50 is 100 to 1000 nM.

As to `COc1ccc(Sc2ccccc2CSC(=N)N)c(CSC(=N)N)c1` [Example 1.4, 2-[2-(2-carbamimidoylsulfanylmethyl-4-methoxyphenylsulfanyl)-benzyl]isothiourea dihydrobromide], the IC50 is at least 1000 nM.

Regarding `N=C(N)SCc1cc(F)ccc1Oc1ccc(Cl)cc1CSC(=N)N` [Example 2.11, 2-[2-(2-carbamimidoylsulfanylmethyl-4-chlorophenoxy)-5-fluorobenzyl]isothiourea dihydrobromide], the IC50 was 100 to 1000 nM.

`COC(=O)c1cccc(CSC(=N)N)c1-c1c(CSC(=N)N)cccc1C(=O)OC` [Example 2.24, dimethyl 6,6′-bis(carbamimidoylthiomethyl)biphenyl-2,2′-dicarboxylate dihydrobromide]: the IC50 was at least 1000 nM.

In the case of `N=C(N)SCc1ccccc1Sc1ccc2ccccc2c1CSC(=N)N` [Example 1.13, 2-[2-(1-carbamimidoylsulfanylmethylnaphthalen-2-ylsulfanyl)benzyl]-isothiourea dihydrobromide], the IC50 was at least 1000 nM.

In the case of `COc1ccc(Sc2ccc(F)cc2CSC(=N)N)c(CSC(=N)N)c1` [Example 1.6, 2-[2-(2-carbamimidoylsulfanylmethyl-4-methoxyphenylsulfanyl)-5-fluorobenzyl]isothiourea dihydrobromide], the IC50 lay within 100 to 1000 nM.

In the case of `N=C(N)SCc1cc(F)ccc1Sc1ccc([N+](=O)[O-])cc1CSC(=N)N` [Example 2.1, 2-{[2-({[amino(imino)methyl]thio}methyl)-4-fluorophenyl]thio}-5-nitrobenzyl imidothiocarbamate dihydrobromide], the IC50 lay within 10 to 100 nM.

As to `N=C(N)Cc1ccccc1Sc1ccccc1CC(=N)N` [Example 6.1, 2-(6-(amidinomethyl)phenyl)thio-1-(amidinomethyl)benzene], the IC50 was at least 1000 nM.

In the case of `N=C(N)SCc1ccccc1C(=O)c1cc(Cl)ccc1CSC(=N)N` [Example 2.28, 2-(6-(amidinothiomethyl)phenyl)carbonyl-1-(amidinothiomethyl)-4-chlorobenzene dihydrobromide dihydrobromide], the IC50 is at least 1000 nM.

Turning to `N=C(N)SCCc1ccccc1Sc1ccccc1CSC(=N)N` [Example 1.25, 2-[2-(2-carbamimidoylsulfanylethylphenylsulfanyl)benzyl]isothiourea dihydrobromide], the IC50 was at least 1000 nM.

For the compound `N=C(N)SCc1ccccc1Oc1ccc(F)cc1CSC(=N)N` [Example 2.21, 2-[2-({[amino(imino)methyl]thio}methyl)-4-fluorophenoxy]benzyl imidothiocarbamate dihydrobromide], the concentration for half-maximal inhibition (IC50) is 100 to 1000 nM.

For `N=C(N)SCc1cc(F)ccc1Sc1ccc(F)cc1CSC(=N)N` [Example 2, 2-[2-(2-carbamimidoylsulfanylmethyl-4-fluoro-phenylsulfanyl)-5-fluoro-benzyl]-isothiourea dihydrobromide], the IC50 fell in the range of 100 to 1000 nM.

With `N=C(N)SCCc1cc(F)ccc1Sc1ccc(F)cc1CSC(=N)N` [Example 1.23, 2-[2-(2-carbamimidoylsulfanylethyl-4-fluorophenylsulfanyl)-5-fluorobenzyl]isothiourea dihydrobromide], the IC50 fell in the range of 100 to 1000 nM.

Turning to `N=C(N)SCc1cc(F)ccc1Sc1ccc(C(F)(F)F)cc1CSC(=N)N` [Example 1.18, 2-[2-(2-carbamimidoylsulfanylmethyl-4-fluorophenylsulfanyl)-5-(trifluoromethyl)benzyl]isothiourea dihydrobromide], the IC50 is at least 1000 nM.

As to `Cc1ccc(CSC(=N)N)c(Sc2ccc(F)cc2CSC(=N)N)c1` [Example 1.5, 2-[2-(2-carbamimidoylsulfanylmethyl-5-methylphenylsulfanyl)-5-fluorobenzyl]isothiourea dihydrobromide], the IC50 is at least 1000 nM.

For the compound `N=C(N)SCc1cc(F)ccc1Sc1ccc(Cl)cc1CSC(=N)N` [Example 1.20, 2-[2-(2-carbamimidoylsulfanylmethyl-4-chlorophenylsulfanyl)-5-fluorobenzyl]isothiourea dihydrobromide], the IC50 was in the range of 100 to 1000 nM.

For the compound `N=C(N)SCc1ccccc1Oc1cccc(Cl)c1CSC(=N)N` [Example 2.17, 2-[2-({[amino(imino)methyl]thio}methyl)-3-chlorophenoxy]benzyl imidothiocarbamate dihydrobromide], the IC50 was at least 1000 nM.

For `N=C(N)SCc1ccccc1C(=O)c1ccc(Cl)cc1CSC(=N)N` [Example 2.29, 2-(6-(amidinothiomethyl)phenyl)carbonyl-1-(amidinothiomethyl)-5-chlorobenzene dihydrobromide], the IC50 was at least 1000 nM.
